Activity calls are given as the source filed them. How the calls were made is not given here.
Target: Alkaline phosphatase, placental type (Homo sapiens) (UniProt P05187)
Test: inhibitors of placental alkaline phosphatase – biochemical, human PLAP isozyme, selectivity assay for human IAP inhibitor project, SAR follow-up (AID 493138)
Settings: purified placental alkaline phosphatase, enzyme activity

Row | Compound | IC50
1 | COc1ccc(C=NNC(=S)Nc2ccccc2[N+](=O)[O-])cc1O | > 100 µM (inactive)
2 | Cc1ccc(-c2ccc(/C=N/N=C3\NC(=O)C(CC(=O)O)S3)o2)c([N+](=O)[O-])c1 (stereo unspecified) | > 100 µM (inactive)
3 | FC(F)(F)c1cccc(NC(=S)NCCC(c2ccccc2)c2ccccc2)c1 | > 100 µM (inactive)
4 | O=S(=O)(c1ccc(NC(=S)N/N=C/c2ccc(O)c(O)c2)cc1)N1CCOCC1 | > 100 µM (inactive)
5 | Cc1ccc(Nc2nc(-c3ccc(O)cc3O)cs2)cc1 | > 100 µM (inactive)
6 | CC(C)(C)c1ccc(/C=N/N=C2\NC(=O)C(CC(=O)O)S2)cc1 (stereo unspecified) | > 100 µM (inactive)
7 | Cc1cc(C)cc(Nc2nc(-c3ccc(O)cc3O)cs2)c1 | > 100 µM (inactive)
8 | O=[N+]([O-])c1ccc(NC(=S)NCCC(c2ccccc2)c2ccccc2)cc1 | > 100 µM (inactive)
9 | Cc1cccc(Nc2nc(-c3ccc(O)c(O)c3)cs2)c1 | > 100 µM (inactive)
10 | COc1cc(C=NNC(=S)Nc2cccc(C(=O)O)c2)ccc1O | > 100 µM (inactive)
11 | Cc1ccc(Nc2nc(-c3ccc(O)cc3O)cs2)cc1C | > 100 µM (inactive)
12 | Oc1ccc(-c2csc(Nc3ccccc3)n2)c(O)c1 | > 100 µM (inactive)
13 | Cc1ccc(C)c(Nc2nc(-c3ccc(O)cc3O)cs2)c1 | > 100 µM (inactive)
14 | COc1cc(/C=N/N=C2/SCC(=O)N2c2ccc(O)cc2)ccc1O | > 100 µM (inactive)
15 | S=C(NCCC(c1ccccc1)c1ccccc1)Nc1ccc(Cl)cc1Cl | > 100 µM (inactive)
16 | Cn1c(=S)n(N=Cc2ccc3c(c2)OCO3)c2ccccc21 | > 100 µM (inactive)
17 | CCOc1cc(/C=N/N=C2\NC(=O)C(CC(=O)O)S2)ccc1O (stereo unspecified) | > 100 µM (inactive)
18 | Oc1ccc(-c2csc(Nc3ccc(F)cc3)n2)cc1O | > 100 µM (inactive)
19 | O=S(=O)(c1ccc(NC(=S)N/N=C/c2ccc(O)c(O)c2O)cc1)N1CCOCC1 | > 100 µM (inactive)
20 | COC(=O)/C=C1/S/C(=N/NC(=O)c2ccccc2C)NC1=O | > 100 µM (inactive)
21 | CCN(CC)S(=O)(=O)c1ccc(-c2csc(=Nc3cccc4ccccc34)n2C)cc1 | > 100 µM (inactive)
22 | N#CCCn1cc(/C=N/N=C2/NC(=O)C(CC(=O)O)S2)c(-c2ccc(F)cc2)n1 (stereo unspecified) | > 100 µM (inactive)
23 | Cc1ccc(Nc2nc(-c3ccc(O)c(O)c3)cs2)cc1 | > 100 µM (inactive)
24 | COC(=O)/C=C1\SC(N=Nc2c(O)[nH]c3ccccc23)=NC1=O | > 100 µM (inactive)
25 | Cc1cccc(C)c1NC(=S)N/N=C/c1ccc(O)c(O)c1O | > 100 µM (inactive)
26 | CCc1ccccc1Nc1nc(-c2ccc(O)c(O)c2)cs1 | > 100 µM (inactive)

Row | Compound | IC50
27 | COc1cc(/C=N/N=C2\NC(=O)C(CC(=O)O)S2)cc(OC)c1OC (stereo unspecified) | > 100 µM (inactive)
28 | Cc1ccc2sc(NNC(=O)c3ccc4c(c3)OCCO4)nc2c1C | > 100 µM (inactive)
29 | COC(=O)/C=C1/S/C(=N/NC(=O)c2ccc(Cl)cc2Cl)NC1=O | > 100 µM (inactive)
30 | COC(=O)/C=C1/S/C(=N/NC(=O)c2ccc(OC)cc2)NC1=O | > 100 µM (inactive)
31 | COC(=O)/C=C1\S/C(=N/N=C/CC(=O)OC)NC1=O | > 100 µM (inactive)
32 | Cc1c(Cl)cccc1Nc1nc(-c2ccc(O)c(O)c2)cs1 | > 100 µM (inactive)
33 | O=C(O)CC1S/C(=N/N=C/c2ccco2)NC1=O (stereo unspecified) | > 100 µM (inactive)
34 | CN(C)S(=O)(=O)c1cccc(NC(=S)NN=Cc2ccc(O)c(O)c2O)c1 | > 100 µM (inactive)
35 | COC(=O)/C=C1\S/C(=N/N=C/c2ccc(Cl)cc2)NC1=O | > 100 µM (inactive)
36 | Cc1cccc2sc(NNC(=O)c3ccc4c(c3)OCCO4)nc12 | > 100 µM (inactive)
37 | O=[N+]([O-])c1ccccc1NC(=S)NN=Cc1ccc(O)c(O)c1 | 8.24 µM
38 | COc1ccc(/C=N/N=C2\NC(=O)C(CC(=O)O)S2)c(OC)c1 (stereo unspecified) | > 100 µM (inactive)
39 | COC(=O)C/C=N/N=C1\NC(=O)/C(=C/C(=O)O)S1 | > 100 µM (inactive)
40 | COc1ccc(-c2csc(Nc3cccc4ccccc34)n2)cc1F | > 100 µM (inactive)
41 | COc1ccc(-c2csc(Nc3cccc4ccccc34)n2)cc1 | > 100 µM (inactive)
42 | O=S(=O)(Nc1ncccn1)c1ccc(NC(=S)NCCC(c2ccccc2)c2ccccc2)cc1 | > 100 µM (inactive)
43 | Cc1cccc(NC(=S)NNC(=O)c2ccc3c(c2)OCO3)c1 | > 100 µM (inactive)
44 | CC(=NNC(=S)Nc1ccccc1)c1ccc2c(c1)OCO2 | > 100 µM (inactive)
45 | Cc1ccc(Nc2nc(-c3ccc(O)cc3O)cs2)cc1F | > 100 µM (inactive)
46 | Cc1ccc(Cl)cc1Nc1nc(-c2ccc(O)c(O)c2)cs1 | > 100 µM (inactive)
47 | Cc1cccc(Nc2nc(-c3ccc(O)c(C(N)=O)c3)cs2)c1 | > 100 µM (inactive)
48 | Cc1cccc(NC(=S)NN=Cc2ccc3c(c2)OCO3)c1 | > 100 µM (inactive)
49 | COc1ccc(NC(=S)NCCC(c2ccccc2)c2ccccc2)cc1 | > 100 µM (inactive)
50 | COC(=O)/C=C1/S/C(=N/NC(=O)c2ccccc2OC)NC1=O | > 100 µM (inactive)
51 | CCOc1cc(C=NNC(=S)NC2CCCCC2)ccc1O | > 100 µM (inactive)

More lines, now with the values ahead:

Row | IC50 | Compound
52 | > 100 µM (inactive) | COC(=O)/C=C1/S/C(=N/N=Cc2ccc(N(C)C)cc2)NC1=O
53 | > 100 µM (inactive) | CCOc1cc(C=N/N=C2/NC(=O)C(CC(=O)O)S2)ccc1OCc1ccccc1Cl (stereo unspecified)
54 | > 100 µM (inactive) | COc1ccc(C(=O)NNC(=S)NC2CCCCC2)cc1OC
55 | > 100 µM (inactive) | COc1cc([N+](=O)[O-])ccc1NC(=S)NCCC(c1ccccc1)c1ccccc1
56 | > 100 µM (inactive) | Oc1ccc(-c2csc(Nc3cccc4ccccc34)n2)cc1O
57 | > 100 µM (inactive) | Cc1ccc(Nc2nc(-c3ccc(O)c(C(N)=O)c3)cs2)cc1
58 | > 100 µM (inactive) | O=[N+]([O-])c1ccccc1NC(=S)N/N=C/c1ccc(O)c(O)c1O
59 | > 100 µM (inactive) | COc1cccc(Nc2nc(-c3ccc(O)cc3)cs2)c1
60 | > 100 µM (inactive) | CCOc1ccc(Nc2nc(-c3ccc(O)c(O)c3)cs2)cc1
61 | > 100 µM (inactive) | COC(=O)/C=C1/S/C(=N/NC(=O)c2ccccc2)NC1=O
62 | > 100 µM (inactive) | Cc1ccc(Nc2nc(-c3ccc(O)c(O)c3)cs2)cc1F
63 | > 100 µM (inactive) | COc1ccc(C=Nn2c(=S)n(C)c3ccccc32)cc1OC
64 | > 100 µM (inactive) | COc1cc(C=NNC(=S)Nc2cccc(S(=O)(=O)N(C)C)c2)ccc1O
65 | > 100 µM (inactive) | Cc1ccc2nc(NNC(=O)c3ccc4c(c3)OCCO4)sc2c1
66 | 33.8 µM | NS(=O)(=O)c1ccc(Nc2nc(-c3ccc(O)c(O)c3)cs2)cc1
67 | > 100 µM (inactive) | COc1cc(C(=O)NNC(=S)Nc2ccc(S(N)(=O)=O)cc2)cc(OC)c1OC
68 | > 100 µM (inactive) | COc1ccc(C=NN=C2SC(CC(=O)O)C(=O)N2c2ccc(O)cc2)cc1 (stereo unspecified)
69 | > 100 µM (inactive) | Oc1ccc(Nc2nc(-c3ccc(O)c(O)c3)cs2)cc1
70 | > 100 µM (inactive) | COc1cc(C=NNC(=S)Nc2cccc(S(=O)(=O)N(C)C)c2)cc(OC)c1O
71 | > 100 µM (inactive) | COc1ccc(Cl)cc1Nc1nc(-c2ccc(O)c(O)c2)cs1
72 | > 100 µM (inactive) | COc1cc(C=NN=C2SC(CC(=O)O)C(=O)N2c2ccc(O)cc2)ccc1O (stereo unspecified)
73 | > 100 µM (inactive) | Cc1cc(=O)oc2cc(NC(=S)NCCC(c3ccccc3)c3ccccc3)ccc12
74 | > 100 µM (inactive) | NS(=O)(=O)c1ccc(Nc2nc(-c3ccc(O)cc3O)cs2)cc1
75 | > 100 µM (inactive) | COc1cc([N+](=O)[O-])ccc1NC(=S)NNC(=O)c1ccc2c(c1)OCO2
76 | > 100 µM (inactive) | COc1ccc(/C=N/N=C2/NC(=O)C(CC(=O)O)S2)cc1OC (stereo unspecified)
